In patent publication US20240182531A1, “KV1.3 Blockers” (priority 2021, published 2024):
Values joined by “and” are separate entries in the source; they are usually repeats but may differ in a detail not shown here. Equal entries are not always repeated. Where two headings read alike, the source gives them in different places. Where a SMILES comes first, the peptide text is derived from it. Bridges are numbered along the chain shown (N, C = ends). [ ]: non-standard residue; d: D form. Nle = CCCC[C@H](N)C(=O)O

Tests used:
[1] = target: T1, human Kv1.1 (Homo sapiens, UniProt Q09470); test: cell-based
T1 construct: expressed in transfected cells; host or cells: CHO

[2] = target: T2, human Kv1.2 (Homo sapiens, UniProt P16389); test: cell-based
T2 construct: expressed in transfected cells; host or cells: CHO

[3] = target: T3, human Kv1.6 (Homo sapiens, UniProt P17658); test: cell-based
T3 construct: expressed in transfected cells; host or cells: CHO

[4] = system: Human peripheral blood mononuclear cells (PBMCs); assay type: cell-based; conditions: geometric mean, at least 4 replicates, Example 5a; for IC50: read-out: anti-CD3 PBMC/IL-2 IC50
Protocol: Human peripheral blood mononuclear cells (PBMCs) were used to assess the effects of Kv1.3 blocker reference compounds on T-cell activation as determined by IL-2 (cytokine) release after stimulation with anti-CD3.
Human PBMCs were obtained from Precision for Medicine (Frederick, MD). Cells from 5 donors were used. Plate-bound anti-CD3 was used to stimulate bulk T cells in the PBMC preparations. Briefly, 96-well plates were coated with anti-CD3 antibody for 2 hrs at 37° C., using 50 μL of a 0.5 μg/mL anti-CD3 solution diluted in 1×PBS. Thereafter the plates were washed twice.
Kv1.3 blockers as shown in Table 8a were diluted in medium (RPMI 1640 with Glutamax-I containing 10% v/v Fetal Bovine Serum, 1% v/v penicillin-streptomycin solution) and added in a volume of 100 μL at concentrations ranging from 0.01 pM to 100 nM (tenfold dilutions). […] Finally, 1×10^5 PBMCs were added to each well in a volume of 100 μL, giving a final volume of 200 μL per well. The plates were incubated for 20-24 hours in a 37 °C/5% CO2 incubator. After centrifugation of the plates, 25 μl supernatant was transferred to IL-2 detection plates (MSD Human IL-2 Tissue Culture Kit, cat #K151AHB-2) and IL-2 was measures as described by the manufacturer (Meso Scale Discovery, Rockville, Maryland, USA).
Results are shown in Table 8a as geometric mean of IC50 values obtained from anti-CD3 stimulated human PBMC assays. All values derive from at least 4 replicates.

[5] = target: Rat whole blood (Rattus norvegicus, UniProt P15384); assay type: cell-based; conditions: IL-17A release, thapsigargin, 24 Hr, at least 2 replicates
[6] = Pharmacokinetic characterisation after single s.c. injection in Sprague Dawley rats; conditions: male, rat, plasma, sc, 100 nmol/kg
Protocol: Sprague Dawley (males with a body weight of approximately 250-350 g) were given a single subcutaneous (s.c.) injection of each peptide to be tested.
Following s.c. administration of the selected compounds (dose 100 nmol/kg, dosing volume either 2 mL/kg), blood samples were drawn at 5 min, 15 min, 30 min, 60 min, 2 h, 3 h, 4 h, 6 h, 8 h post-dose. At each sampling time point, samples from the rats were drawn by sublingual bleeding. After last sampling the rats were sacrificed by O2/CO2 anaesthesia. The dosing vehicle was 10 mM phosphate, 0.8% NaCl, 0.05% Polysorbate 20 (pH 6.0).
Plasma samples were analyzed after solid phase extraction (SPE) by liquid chromatography mass spectrometry (LC-MS/MS). Mean plasma concentrations were used for calculation of the pharmacokinetic parameters using the non-compartmental approach in Phoenix WinNonlin 6.4 or a later version. Plasma terminal elimination half-life (T½) was determined as In(2)/λz where λz is the magnitude of the slope of the log linear regression of the log concentration versus time profile during the terminal phase. AUCinf is the area under the plasma concentration—time curve extrapolated to infinity (AUCinf=AUClast+Clast/λz, where Clast is the last observed plasma concentration). Cmax is the maximum observed concentration, occurring at Tmax.

[7] = system: KLH ear inflammation model in rats; assay type: in vivo, rat; conditions: 100 nmol/kg SC 24 hrs prior to KLH ear challenge; +/− SD
[8] = target: T4, human Kv1.3 voltage-gated K+ channel (Homo sapiens, UniProt P22001); test: Kv1.3 blocker activity in FLIPR thallium assay; assay type: cell-based
T4 construct: host or cells: CHO-DUKX
Protocol: A human Kv1.3 voltage-gated K+ channel cell line was purchased from Perkin Elmer (#TDS-AX-010-C-1). The cell line is based on CHO-DUKX cells stably transfected with the human Kv1.3 voltage-gated K+ channel.
The cell line was grown in MEMα with nucleotides, GlutaMAX (Gibco #32571028), 10% Foetal Bovine Serum (FBS), 0.4 mg/ml Geneticin, 100 units/ml Penicillin, and 100 μg/ml Streptomycin and seeded at 10.000 cells/well in black poly-D-lysine-coated 96 well plates.
The FluxOR™ Potassium Ion Channel Assay (Invitrogen #F10016) was used to quantitate flux of thallium ions into the cells as a response to Kv1.3 activation with a stimulus buffer causes depolarization of the cell membrane, thereby generating a fluorescent signal, proportional to channel activity. The assay was performed as described by the assay kit manufacturer including a compound pre-incubation step (30 min, 37° C., 5% CO2) in assay buffer containing 0.02% W/v casein from bovine milk (Sigma #C4765) prior to cell membrane depolarization using a final stimuli buffer composition corresponding to 0.2× FluxOR™ chloride-free buffer, 5 mM K2SO4, 1 mM Tl2SO4. The fluorescence responses were recorded and quantified (maximum response at 50 s, 37° C.) using the FLIPR® Tetra High Throughput Screening System (Molecular Devices, Inc.).
IC50 can be regarded as a measure of potency of inhibition for the respective compound. The IC50 value is a measure of the concentration of an inhibitor required to achieve half of that compound's maximal inhibition of ion channel activity in a given assay.

[9] = ratio of patch clamp IC50 values

T1 sequence (Q09470 whole entry): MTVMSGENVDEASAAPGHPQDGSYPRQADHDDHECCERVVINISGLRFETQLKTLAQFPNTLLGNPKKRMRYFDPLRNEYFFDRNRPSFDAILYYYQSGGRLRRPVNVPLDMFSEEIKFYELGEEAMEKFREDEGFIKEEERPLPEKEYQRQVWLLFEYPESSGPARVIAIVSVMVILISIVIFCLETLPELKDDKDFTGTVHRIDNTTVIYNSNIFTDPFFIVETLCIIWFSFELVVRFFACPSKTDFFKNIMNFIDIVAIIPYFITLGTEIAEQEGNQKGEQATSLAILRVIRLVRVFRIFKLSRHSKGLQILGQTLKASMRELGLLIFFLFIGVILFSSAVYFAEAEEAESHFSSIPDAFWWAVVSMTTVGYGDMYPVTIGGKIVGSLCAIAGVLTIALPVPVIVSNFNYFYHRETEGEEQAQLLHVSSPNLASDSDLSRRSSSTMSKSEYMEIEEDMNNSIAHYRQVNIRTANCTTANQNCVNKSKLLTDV
T3 sequence (P17658 whole entry): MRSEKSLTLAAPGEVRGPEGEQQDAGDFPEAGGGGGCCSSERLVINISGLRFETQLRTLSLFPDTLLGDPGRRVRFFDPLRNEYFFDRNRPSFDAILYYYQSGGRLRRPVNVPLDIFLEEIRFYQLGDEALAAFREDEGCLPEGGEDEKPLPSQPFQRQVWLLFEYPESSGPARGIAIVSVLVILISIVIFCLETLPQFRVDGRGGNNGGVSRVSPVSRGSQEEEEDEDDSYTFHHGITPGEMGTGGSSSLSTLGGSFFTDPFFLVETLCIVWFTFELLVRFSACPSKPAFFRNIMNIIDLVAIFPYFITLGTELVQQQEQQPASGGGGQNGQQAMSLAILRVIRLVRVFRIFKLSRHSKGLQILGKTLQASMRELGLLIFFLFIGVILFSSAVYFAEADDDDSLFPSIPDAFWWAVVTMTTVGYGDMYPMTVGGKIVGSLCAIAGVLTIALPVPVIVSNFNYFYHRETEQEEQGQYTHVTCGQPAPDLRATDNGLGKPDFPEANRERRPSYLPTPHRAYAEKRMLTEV
T2 sequence (P16389 whole entry): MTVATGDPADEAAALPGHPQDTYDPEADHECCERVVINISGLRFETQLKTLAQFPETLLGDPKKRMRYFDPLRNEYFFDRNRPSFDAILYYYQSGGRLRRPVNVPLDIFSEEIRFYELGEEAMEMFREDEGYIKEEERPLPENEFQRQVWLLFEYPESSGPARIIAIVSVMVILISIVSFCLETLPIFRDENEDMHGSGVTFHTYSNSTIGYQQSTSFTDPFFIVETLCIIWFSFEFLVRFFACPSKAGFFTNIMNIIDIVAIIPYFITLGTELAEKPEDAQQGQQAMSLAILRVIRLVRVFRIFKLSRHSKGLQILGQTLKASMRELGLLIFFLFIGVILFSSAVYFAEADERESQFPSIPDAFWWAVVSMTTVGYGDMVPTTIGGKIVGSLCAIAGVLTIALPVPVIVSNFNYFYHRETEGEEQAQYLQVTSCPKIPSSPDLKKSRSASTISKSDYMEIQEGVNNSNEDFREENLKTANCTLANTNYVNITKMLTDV
Chain of Rat whole blood (P15384 whole entry): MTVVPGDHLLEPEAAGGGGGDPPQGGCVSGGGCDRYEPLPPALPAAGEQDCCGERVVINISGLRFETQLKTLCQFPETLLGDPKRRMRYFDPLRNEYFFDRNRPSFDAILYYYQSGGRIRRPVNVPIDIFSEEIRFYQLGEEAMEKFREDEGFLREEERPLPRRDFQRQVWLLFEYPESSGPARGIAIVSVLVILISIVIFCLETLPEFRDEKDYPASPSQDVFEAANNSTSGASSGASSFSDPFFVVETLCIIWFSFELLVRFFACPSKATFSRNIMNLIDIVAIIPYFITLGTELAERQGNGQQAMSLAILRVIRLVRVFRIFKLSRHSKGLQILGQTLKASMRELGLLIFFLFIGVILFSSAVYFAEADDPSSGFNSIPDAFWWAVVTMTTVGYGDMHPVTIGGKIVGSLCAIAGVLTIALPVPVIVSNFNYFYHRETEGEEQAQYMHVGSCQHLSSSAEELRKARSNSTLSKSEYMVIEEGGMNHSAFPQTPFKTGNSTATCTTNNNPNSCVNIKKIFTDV
T4 sequence (P22001 whole entry): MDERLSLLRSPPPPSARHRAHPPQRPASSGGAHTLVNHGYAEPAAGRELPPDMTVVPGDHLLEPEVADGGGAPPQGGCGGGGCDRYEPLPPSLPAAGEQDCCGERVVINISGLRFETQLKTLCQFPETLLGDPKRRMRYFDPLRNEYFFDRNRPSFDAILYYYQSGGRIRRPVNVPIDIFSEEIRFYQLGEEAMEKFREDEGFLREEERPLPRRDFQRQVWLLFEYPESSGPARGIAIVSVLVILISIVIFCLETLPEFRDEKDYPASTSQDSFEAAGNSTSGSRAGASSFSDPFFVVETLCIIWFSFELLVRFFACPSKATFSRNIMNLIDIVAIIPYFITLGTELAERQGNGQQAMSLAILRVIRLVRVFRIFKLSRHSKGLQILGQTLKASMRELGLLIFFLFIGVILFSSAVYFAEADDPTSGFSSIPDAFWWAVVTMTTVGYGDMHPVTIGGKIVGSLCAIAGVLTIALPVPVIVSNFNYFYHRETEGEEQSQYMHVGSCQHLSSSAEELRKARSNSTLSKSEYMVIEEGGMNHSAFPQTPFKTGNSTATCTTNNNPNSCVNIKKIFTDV

Row | SMILES | Selectivity ratio Kv1.1/Kv1.3 [1, 9] | Selectivity ratio Kv1.2/Kv1.3 [2, 9] | Selectivity ratio Kv1.6/Kv1.3 [3, 9] | IC50 [4] [pM] | IC50 [5] [pM] | Selectivity ratio Kv1.1/Kv1.3 [1] | Selectivity ratio Kv1.2/Kv1.3 [2] | Selectivity ratio Kv1.6/Kv1.3 [3] | anti-CD3 PBMC/IL-2 IC50 [4] | AUC(0-inf) [6] [µM·h] | Cmax [6] [nM] | half-life [6] [h] | % inhibition of ear thickness (AUC of Δ ear thickness 0-48 hours) [7] | IC50 [8] [pM]
1 | CC[C@H](C)[C@@H]1NC(=O)[C@H](C)NC(=O)[C@H](CC(=O)O)NC(=O)[C@H](CC(C)C)NC(=O)[C@@H]2CSSC[C@@H](C(=O)N[C@@H](Cc3ccc(O)cc3)C(=O)N3CCC[C@H]3C(=O)N[C@@H](CCCNC(=N)N)C(N)=O)NC(=O)[C@H](CCCCN)NC(=O)[C@@H]3CSSC[C@H](NC(=O)[C@H](CCC(=O)O)NC(=O)[C@H](C(C)C)NC(=O)[C@H](CO)NC(=O)[C@H](C)NC(=O)[C@H](CO)NC(=O)[C@@H](NC(=O)[C@H](CCCNC(=N)N)NC(=O)[C@H](CCSC)NC(=O)[C@H](CC(=O)O)NC(=O)[C@H](CCSC)NC(=O)[C@@H](N)CC(N)=O)CSSC[C@H](NC(=O)[C@H](CCCCN)NC(=O)CNC(=O)[C@H](Cc4ccccc4)NC(=O)[C@H]([C@@H](C)CC)NC(=O)[C@H](CO)NC(=O)CNC1=O)C(=O)N[C@@H](CCSC)C(=O)N[C@@H](CC(N)=O)C(=O)N[C@@H](CCCCN)C(=O)N[C@@H](CCCCN)C(=O)N3)C(=O)N[C@@H](CCCCN)C(=O)N[C@@H](CCC(N)=O)C(=O)N[C@@H](CCCCN)C(=O)N2 [compound 25] (H-NMDMRCSASVECKQKCLDAIGSIFGKCMNKKCKCYPR-NH2; disulfide 6-27, 12-32, 16-34) | >14300 | 471 | 12045 | 100 | 1200 |  |  |  |  |  |  |  |  | 
2 | CC[C@H](C)[C@H](N)C(=O)N[C@@H](CC(N)=O)C(=O)N[C@H](C(=O)N[C@@H](CCCCN)C(=O)N[C@H]1CSSC[C@@H]2NC(=O)[C@H](CCCCN)NC(=O)CNC(=O)[C@H](Cc3ccccc3)NC(=O)[C@H](CCCNC(=N)N)NC(=O)[C@H](CCSC)NC(=O)CNC(=O)[C@H](C)NC(=O)[C@H](CC(=O)O)NC(=O)[C@H](CCCCN)NC(=O)[C@@H]3CSSC[C@@H](C(=O)N[C@@H](Cc4ccc(O)cc4)C(=O)N[C@@H](CO)C(=O)O)NC(=O)[C@H](CCCNC(=N)N)NC(=O)[C@H](CSSC[C@H](NC(=O)[C@H](CCC(N)=O)NC(=O)[C@H](CCC(N)=O)NC(=O)[C@@H]4CCCN4C(=O)[C@H](CC(C)C)NC(=O)[C@H](CO)NC1=O)C(=O)N[C@@H]([C@@H](C)CC)C(=O)N[C@@H](CCCCN)C(=O)N1CCC[C@H]1C(=O)N3)NC(=O)[C@H](CCCCN)NC(=O)[C@H](CCCCN)NC(=O)[C@H](CC(N)=O)NC(=O)[C@H](CCSC)NC2=O)C(C)C [Moka1] |  |  |  |  |  | >300 | 31 | >300 | less potent in inhibiting IL-2 secretion |  |  |  |  | 
3 | CCCC[C@@H]1NC(=O)[C@@H]2CSSC[C@H](NC(=O)[C@H](CCCNC(=N)N)NC(=O)[C@H](CCSC)NC(=O)[C@H](CC(=O)O)NC(=O)[C@H](CCSC)NC(=O)[C@@H](N)CC(N)=O)C(=O)N[C@@H](CO)C(=O)N[C@@H](C)C(=O)N[C@@H](CO)C(=O)N[C@@H](C(C)C)C(=O)N[C@@H](CCC(=O)O)C(=O)N[C@H]3CSSC[C@H](NC(=O)[C@H](CCCCN)NC(=O)[C@H](CCCCN)NC(=O)[C@H](CC(N)=O)NC1=O)C(=O)N[C@@H](CCCCN)C(=O)N[C@H](C(=O)N[C@@H](Cc1ccc(O)cc1)C(=O)N1CCC[C@H]1C(=O)N[C@@H](CCCNC(=N)N)C(N)=O)CSSC[C@H](NC(=O)[C@H](CCCCN)NC(=O)[C@H](CCC(N)=O)NC(=O)[C@H](CCCCN)NC3=O)C(=O)N[C@@H](CC(C)C)C(=O)N[C@@H](CCCCN)C(=O)N[C@@H](C)C(=O)N[C@@H]([C@@H](C)CC)C(=O)NCC(=O)N[C@@H](CO)C(=O)N[C@@H]([C@@H](C)CC)C(=O)N[C@@H](Cc1ccccc1)C(=O)NCC(=O)N[C@@H](CCCCN)C(=O)N2 [compound 21] (H-NMDMRCSASVECKQKCLKAIGSIFGKC[Nle]NKKCKCYPR-NH2; disulfide 6-27, 12-32, 16-34) | >12600 | 561 | 10360 | 50 |  |  |  |  |  |  |  |  |  | 
4 | CCCC[C@H](NC(=O)[C@@H]1CCCN1)C(=O)N[C@@H](CCC(=O)O)C(=O)N[C@@H](CCCC)C(=O)N[C@@H](CCCNC(=N)N)C(=O)N[C@H]1CSSC[C@@H]2NC(=O)[C@H](CCCCN)NC(=O)CNC(=O)[C@H](Cc3ccccc3)NC(=O)[C@H]([C@@H](C)CC)NC(=O)[C@H](CO)NC(=O)CNC(=O)[C@H]([C@@H](C)CC)NC(=O)[C@H](C)NC(=O)[C@H](C)NC(=O)[C@H](CC(C)C)NC(=O)[C@@H]3CSSC[C@@H](C(=O)N[C@@H](Cc4ccc(O)cc4)C(=O)N4CCC[C@H]4C(=O)N[C@@H](CCCNC(=N)N)C(=O)O)NC(=O)[C@H](CCCCN)NC(=O)[C@H](CSSC[C@H](NC(=O)[C@H](CCC(=O)O)NC(=O)[C@H](C(C)C)NC(=O)[C@H](CO)NC(=O)[C@H](C)NC(=O)[C@H](CO)NC1=O)C(=O)N[C@@H](CCCCN)C(=O)N[C@@H](CCC(N)=O)C(=O)N[C@@H](CCCCN)C(=O)N3)NC(=O)[C@H](CCCCN)NC(=O)[C@H](CCCCN)NC(=O)[C@H](CC(N)=O)NC(=O)[C@H](CCCC)NC2=O [compound 14] (H-P[Nle]E[Nle]RCSASVECKQKCLAAIGSIFGKC[Nle]NKKCKCYPR-OH; disulfide 6-27, 12-32, 16-34) | >9100 | 3384 | >9100 |  | 430 |  |  |  |  | 0.183 | 103 | 1 | 37.7% and 42.5% | 
5 | CCCC[C@H](NC(=O)[C@@H]1CCCN1)C(=O)N[C@@H](CCC(=O)O)C(=O)N[C@@H](CCCC)C(=O)N[C@@H](CCCNC(=N)N)C(=O)N[C@H]1CSSC[C@@H]2NC(=O)[C@H](CCCCN)NC(=O)CNC(=O)[C@H](Cc3ccccc3)NC(=O)[C@H]([C@@H](C)CC)NC(=O)[C@H](CO)NC(=O)CNC(=O)[C@H]([C@@H](C)CC)NC(=O)[C@H](C)NC(=O)[C@H](C)NC(=O)[C@H](CC(C)C)NC(=O)[C@@H]3CSSC[C@@H](C(=O)N[C@@H](Cc4ccc(O)cc4)C(=O)N4CCC[C@H]4C(=O)N[C@@H](CCCNC(=N)N)C(=O)O)NC(=O)[C@H](CCCCN)NC(=O)[C@H](CSSC[C@H](NC(=O)[C@H](CCC(=O)O)NC(=O)[C@H](C(C)C)NC(=O)[C@H](CO)NC(=O)[C@H](C)NC(=O)[C@H](Cc4c[nH]cn4)NC1=O)C(=O)N[C@@H](CCCCN)C(=O)N[C@@H](CCC(N)=O)C(=O)N[C@@H](CCCCN)C(=O)N3)NC(=O)[C@H](CCCCN)NC(=O)[C@H](CCCCN)NC(=O)[C@H](CC(N)=O)NC(=O)[C@H](CCCC)NC2=O [compound 4] (H-P[Nle]E[Nle]RCHASVECKQKCLAAIGSIFGKC[Nle]NKKCKCYPR-OH; disulfide 6-27, 12-32, 16-34) |  |  |  |  |  |  |  |  |  | 0.138 | 91.8 | 2.7 |  | 150
